Data from ChEMBL document CHEMBL4483862, “Open-source discovery of chemical leads for next-generation chemoprotective antimalarials” (2018).

System: Plasmodium berghei
Experiment: Luciferase/luciferin-expressing antifolate-resistant parasites were used to infect a culture of HepG2 cells that were pre-incubated with compounds. Infected hepatocytes emit light due to the luciferase reaction. Assay results are presented as the percent inhibition of light emission compared to control. […]
Format: functional
Conditions: sporozoite; for IC90: read-out: LUCIFERASE INFECTION ASSAY - IC90
[1] = read-out: LUCIFERASE INFECTION ASSAY - IC50

O=c1c2ccccc2[nH]c2ccccc12 [ACRIDONE]
IC50 (PBLUC_HILL_SLOPE 1.89, PBLUC_R_SQUARED 0.789, read-out: LUCIFERASE INFECTION ASSAY - IC50): 1.57 µM | IC90: 5.03 µM

COc1ccc(C(=O)Nc2ccc3nc(-c4ccccc4)nn3c2)cc1F
IC50 (FFLUC_HILL_SLOPE 22.9, FFLUC_R_SQUARED 0.117, read-out: LUCIFERASE INFECTION ASSAY - IC50): > 10 µM | IC90: > 10 µM

COc1ccc(C(NCc2cccc3ccccc23)C2CC2)cc1 (stereo not drawn)
IC50 [1]: > 10 µM | IC90: > 10 µM

NC(=O)c1ccc(-c2cc(-c3cccc(C(F)(F)F)c3)cnc2N)cc1
IC50 (PBLUC_HILL_SLOPE 80.6, PBLUC_R_SQUARED 0.104, read-out: LUCIFERASE INFECTION ASSAY - IC50): 4.88 µM | IC90: 5.02 µM

CC1=C(C(=O)OC(C)C)C(c2ccccc2)n2nc(-c3cccs3)nc2N1 (stereo not drawn)
IC50 (HEPG2TOX_HILL_SLOPE 6.88, HEPG2TOX_R_SQUARED 0.357, read-out: LUCIFERASE INFECTION ASSAY - IC50): > 10 µM | IC90: > 10 µM

O=C(NCCO)c1cccc(-c2ccc3ncc(-c4cccc(CO)c4)n3n2)c1
IC50 (HEPG2TOX_HILL_SLOPE 1.86, HEPG2TOX_R_SQUARED 0.81, PBLUC_HILL_SLOPE 12.7, PBLUC_R_SQUARED 0.352, read-out: LUCIFERASE INFECTION ASSAY - IC50): 3.09 µM | IC90: 3.67 µM

CN(C)c1cccc(-c2cnc(N)c(-c3ccc(O)cc3)c2)c1
IC50 (PBLUC_HILL_SLOPE 24.2, PBLUC_R_SQUARED 0.305, read-out: LUCIFERASE INFECTION ASSAY - IC50): 10.5 µM | IC90: > 10.8 µM

CC(C)(C)OC(=O)NC1CCN(C(=O)Nc2cc(Cl)cc(Cl)c2)CC1
IC50 (PBLUC_HILL_SLOPE 7.08, PBLUC_R_SQUARED 0.106, read-out: LUCIFERASE INFECTION ASSAY - IC50): > 8.5 µM | IC90: > 8.5 µM

CNC(=O)c1ccc(C)c(C)c1
IC50 [1]: > 10 µM | IC90: > 10 µM

CN(C)CCNC(=O)c1cccc(-c2cnc3ccc(-c4cccs4)nn23)c1
IC90: 3.6 µM

Cc1c(OCC(=O)NCc2ccccn2)ccc2c1oc(=O)c1ccccc12
IC50 (FFLUC_HILL_SLOPE 12.1, FFLUC_R_SQUARED 0.777, PBLUC_HILL_SLOPE 13, PBLUC_R_SQUARED 0.252, read-out: LUCIFERASE INFECTION ASSAY - IC50): 8.19 µM | IC90: > 8.81 µM

COc1ccc(C(=O)/C(C#N)=N/Nc2cccc(Cl)c2Cl)cc1
IC50 (HEPG2TOX_HILL_SLOPE 1.05, HEPG2TOX_R_SQUARED 0.901, PBLUC_HILL_SLOPE 1.18, PBLUC_R_SQUARED 0.493, read-out: LUCIFERASE INFECTION ASSAY - IC50): 1.44 µM | IC90: 9.32 µM

O=C(NC(c1ccccc1)c1ccccc1)[C@@H]1C[C@@H](OCc2ccccc2)CN1CC1CCCCC1
IC50 (FFLUC_HILL_SLOPE 11.2, FFLUC_R_SQUARED 0.284, read-out: LUCIFERASE INFECTION ASSAY - IC50): > 6.84 µM | IC90: > 6.84 µM

Nc1n[nH]c(Nc2cccc(Cl)c2Cl)c1C(=O)c1cccs1
IC50 (PBLUC_HILL_SLOPE 0.162, PBLUC_R_SQUARED 0.284, read-out: LUCIFERASE INFECTION ASSAY - IC50): < 0.0128 µM | IC90: 3.45 µM

CN(C)c1ccc(/C=C2\CCn3c2nc2scc(-c4ccccc4)c2c3=O)cc1[N+](=O)[O-]
IC50 [1]: > 10 µM | IC90: > 10 µM

CC(C)NC(=O)c1c(NC(=O)c2cccc(C(F)(F)F)c2)nc2ccccn12
IC50 (FFLUC_HILL_SLOPE 39.4, FFLUC_R_SQUARED 0.293, HEPG2TOX_HILL_SLOPE 0.926, HEPG2TOX_R_SQUARED 0.794, PBLUC_HILL_SLOPE 4.31, PBLUC_R_SQUARED 0.785, read-out: LUCIFERASE INFECTION ASSAY - IC50): 0.583 µM | IC90: 0.971 µM

COc1ccc(Nc2cc3[nH]c(-c4cccc(C(F)(F)F)c4)cc3cn2)c(C)c1
IC50 (HEPG2TOX_HILL_SLOPE 8.02, HEPG2TOX_R_SQUARED 0.0629, PBLUC_HILL_SLOPE 11.9, PBLUC_R_SQUARED 0.386, read-out: LUCIFERASE INFECTION ASSAY - IC50): 8.34 µM | IC90: > 10 µM

c1ccc2c(-n3ccnc3)nc(-c3ccsc3)nc2c1
IC50 (HEPG2TOX_HILL_SLOPE 9, HEPG2TOX_R_SQUARED 0.711, PBLUC_HILL_SLOPE 3.68, 14.1, PBLUC_R_SQUARED 0.615, 0.129, read-out: LUCIFERASE INFECTION ASSAY - IC50): 4.26 µM | IC90: 7.73 µM

COC(=O)c1c(NC(=O)c2ccco2)c2cc(NC(C)Cc3ccccc3OC)cnc2n1C (stereo not drawn)
IC50 (HEPG2TOX_HILL_SLOPE 9.88, HEPG2TOX_R_SQUARED 0.405, PBLUC_HILL_SLOPE 3.37, PBLUC_R_SQUARED 0.677, read-out: LUCIFERASE INFECTION ASSAY - IC50): 4.39 µM | IC90: > 7.14 µM

Cc1cc2nc(Oc3ccc4c(c3)CCC4)c3ccccc3n2n1
IC50 [1]: > 10 µM | IC90: > 10 µM

COC(=O)c1c(NC(C)=O)c2cc(NCC3CC=CCC3)cnc2n1CCc1c[nH]c2ccccc12 (stereo not drawn)
IC50 (PBLUC_HILL_SLOPE 16.1, PBLUC_R_SQUARED 0.211, read-out: LUCIFERASE INFECTION ASSAY - IC50): 6.66 µM | IC90: > 6.8 µM

Cc1cc(C)n2cc(CN(C)Cc3ccccc3)nc2n1
IC50 [1]: > 10 µM | IC90: > 10 µM

O=C(CN1CCN(c2cccc(Cl)c2)CC1)Nc1cc(C2CC2)nn1-c1ccccc1
IC50 (PBLUC_HILL_SLOPE 3.16, PBLUC_R_SQUARED 0.0582, read-out: LUCIFERASE INFECTION ASSAY - IC50): 6.87 µM | IC90: > 10 µM

Oc1c(Cl)cc(Cl)cc1C1Nc2cc(Cl)c(C(F)(F)F)cc2N1 (stereo not drawn)
IC50 (HEPG2TOX_HILL_SLOPE 1.05, HEPG2TOX_R_SQUARED 0.96, PBLUC_HILL_SLOPE 13.2, PBLUC_R_SQUARED 0.588, read-out: LUCIFERASE INFECTION ASSAY - IC50): 0.108 µM | IC90: 0.127 µM

CCN(CC)c1ccc(NC(=S)NC(=O)c2ccco2)cc1S(=O)(=O)Nc1ccc(OC)cc1
IC50 [1]: > 10 µM | IC90: > 10 µM

O=[N+]([O-])c1cnc(Sc2ccc(C(F)(F)F)cn2)s1
IC50 (FFLUC_HILL_SLOPE 78.7, FFLUC_R_SQUARED 0.547, HEPG2TOX_HILL_SLOPE 11.7, HEPG2TOX_R_SQUARED 0.958, PBLUC_HILL_SLOPE 15.1, PBLUC_R_SQUARED 0.404, read-out: LUCIFERASE INFECTION ASSAY - IC50): 9.04 µM | IC90: 10.5 µM

Cc1ccc(Sc2ccc(/C=C/c3cc(C(=O)O)c4ccccc4n3)cc2[N+](=O)[O-])cc1
IC50 (PBLUC_HILL_SLOPE 1.12, PBLUC_R_SQUARED 0.368, read-out: LUCIFERASE INFECTION ASSAY - IC50): 8.94 µM | IC90: > 10 µM

CC(Oc1ccc2[nH]c3ccccc3c(=O)c2c1)C(=O)NC(=O)NC12CC3CC(CC(C3)C1)C2 (stereo not drawn)
IC50 (PBLUC_HILL_SLOPE 24.7, PBLUC_R_SQUARED 0.64, read-out: LUCIFERASE INFECTION ASSAY - IC50): 2.84 µM | IC90: 3.1 µM

c1ccc(-c2nnc(CSC3=NCCS3)o2)cc1
IC50 [1]: > 10 µM | IC90: > 10 µM

O=c1c(Cl)c(Cl)cnn1-c1ccc(Cl)cc1Cl
IC50 (HEPG2TOX_HILL_SLOPE 16.8, 1.83, HEPG2TOX_R_SQUARED 0.839, 0.915, PBLUC_HILL_SLOPE 1.48, 10.9, PBLUC_R_SQUARED 0.768, 0.409, read-out: LUCIFERASE INFECTION ASSAY - IC50): 3.64 µM | IC90: 3.5 µM

O=S(=O)(Nc1ccc(Cl)cc1)c1cc(NC(=S)Nc2ccc(Oc3ccccc3)cc2)ccc1N1CCCCC1
IC50 (FFLUC_HILL_SLOPE 10.3, FFLUC_R_SQUARED 0.0303, PBLUC_HILL_SLOPE 13.4, PBLUC_R_SQUARED 0.215, read-out: LUCIFERASE INFECTION ASSAY - IC50): > 10 µM | IC90: > 10 µM

O=S(=O)(Oc1cncc(Cl)c1)c1cc(Cl)cc(Cl)c1
IC50 (PBLUC_HILL_SLOPE 1.51, PBLUC_R_SQUARED 0.362, read-out: LUCIFERASE INFECTION ASSAY - IC50): 8.89 µM | IC90: > 9.75 µM

CC1CCc2nc3ccccc3c(C(=O)OC(C)C(=O)NCCC3=CCCCC3)c2C1 (stereo not drawn)
IC50 [1]: > 10 µM | IC90: > 10 µM

CCn1c2ccccc2c2cc(CN(C)C(=O)Cn3nnc4ccccc43)ccc21
IC50 (HEPG2TOX_HILL_SLOPE 27.9, HEPG2TOX_R_SQUARED 0.506, PBLUC_HILL_SLOPE 3.75, PBLUC_R_SQUARED 0.455, read-out: LUCIFERASE INFECTION ASSAY - IC50): 1.16 µM | IC90: 2.08 µM

CCc1ccc(C(=O)Nc2cccc(NC(=O)c3ccccc3C)c2)cc1
IC50 (HEPG2TOX_HILL_SLOPE 1.42, HEPG2TOX_R_SQUARED 0.919, PBLUC_HILL_SLOPE 4.98, PBLUC_R_SQUARED 0.845, read-out: LUCIFERASE INFECTION ASSAY - IC50): 0.735 µM | IC90: 1.14 µM

CCOC(=O)C1=C(Nc2ccc(OS(=O)(=O)c3ccc(Cl)cc3)cc2)C(=O)N(C(C)(C)C)C1
IC50 [1]: > 6.69 µM | IC90: > 6.69 µM

C=CCOC(=O)C1=C(C)N(c2ccc3c(c2)OCCO3)C(=S)NC1c1ccc(F)cc1F (stereo not drawn)
IC50 (PBLUC_HILL_SLOPE 2.28, PBLUC_R_SQUARED 0.442, read-out: LUCIFERASE INFECTION ASSAY - IC50): 5.73 µM | IC90: > 10 µM

COc1cc(-c2cccc(Nc3cccc(OC(F)(F)C(F)F)c3)n2)cc(OC)c1OC
IC50 [1]: > 7.29 µM | IC90: > 7.29 µM

c1ccc(Nc2nc(-c3ccc4c(c3)OCCO4)cs2)nc1
IC50 (FFLUC_HILL_SLOPE 1.22, FFLUC_R_SQUARED 0.822, PBLUC_HILL_SLOPE 0.789, PBLUC_R_SQUARED 0.792, read-out: LUCIFERASE INFECTION ASSAY - IC50): 0.158 µM | IC90: 2.55 µM

COc1ccc(C(c2ccc(N(C)C)cc2)c2ccc(N(C)C)cc2)c(C)c1C
IC50 [1]: > 8.49 µM | IC90: > 8.49 µM

Cn1nc(-c2ccccc2)c(-c2nc3ccccc3n2C)c1-c1ccccc1
IC50 (HEPG2TOX_HILL_SLOPE 2.41, HEPG2TOX_R_SQUARED 0.613, PBLUC_HILL_SLOPE 4.44, PBLUC_R_SQUARED 0.302, read-out: LUCIFERASE INFECTION ASSAY - IC50): 5.47 µM | IC90: 8.97 µM

N#CCS(=O)(=O)c1ccc(OC(F)(F)F)cc1
IC50 [1]: > 12.4 µM | IC90: > 12.4 µM
